Reference: PubChem BioAssay (NCI)
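Method: 48-hour compound exposure of cells in 96-well plates, five concentrations, linear interpolation of endpoints. GI50 marks 50% less growth. Definition used: TGI = concentration required for complete inhibition of growth.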

Experiments:
Assay in all cases: NCI-60 cell line screen, 48 h
786-0 renal = tested on: 786-0 renal
A498 renal = tested on: A498 renal
A549 NSCLC = tested on: A549 NSCLC
ACHN renal = tested on: ACHN renal
BT-549 breast = tested on: BT-549 breast
CAKI-1 renal = tested on: CAKI-1 renal
CCRF-CEM leukemia = tested on: CCRF-CEM leukemia
COLO 205 colon = tested on: COLO 205 colon
DU-145 prostate = tested on: DU-145 prostate
EKVX NSCLC = tested on: EKVX NSCLC
HCC-2998 colon = tested on: HCC-2998 colon
HCT-116 colon = tested on: HCT-116 colon
HCT-15 colon = tested on: HCT-15 colon
HL-60(TB) leukemia = tested on: HL-60(TB) leukemia
HOP-62 NSCLC = tested on: HOP-62 NSCLC
HOP-92 NSCLC = tested on: HOP-92 NSCLC
HS 578T breast = tested on: HS 578T breast
HT29 colon = tested on: HT29 colon
IGROV1 ovarian = tested on: IGROV1 ovarian
K-562 leukemia = tested on: K-562 leukemia
KM12 colon = tested on: KM12 colon
LOX IMVI melanoma = tested on: LOX IMVI melanoma
M14 melanoma = tested on: M14 melanoma
MALME-3M melanoma = tested on: MALME-3M melanoma
MCF7 breast = tested on: MCF7 breast
MDA-MB-231 breast = tested on: MDA-MB-231 breast
MDA-MB-435 = tested on: MDA-MB-435
MOLT-4 leukemia = tested on: MOLT-4 leukemia
NCI-H226 lung = tested on: NCI-H226 lung
NCI-H23 lung = tested on: NCI-H23 lung
NCI-H460 lung = tested on: NCI-H460 lung
NCI-H522 lung = tested on: NCI-H522 lung
NCI/ADR-RES ovarian = tested on: NCI/ADR-RES ovarian
OVCAR-4 ovarian = tested on: OVCAR-4 ovarian
OVCAR-5 ovarian = tested on: OVCAR-5 ovarian
OVCAR-8 ovarian = tested on: OVCAR-8 ovarian
PC-3 prostate = tested on: PC-3 prostate
RPMI-8226 leukemia = tested on: RPMI-8226 leukemia
RXF 393 renal = tested on: RXF 393 renal
SF-268 CNS = tested on: SF-268 CNS
SF-295 CNS = tested on: SF-295 CNS
SF-539 CNS = tested on: SF-539 CNS
SK-MEL-2 melanoma = tested on: SK-MEL-2 melanoma
SK-MEL-28 melanoma = tested on: SK-MEL-28 melanoma
SK-MEL-5 melanoma = tested on: SK-MEL-5 melanoma
SK-OV-3 ovarian = tested on: SK-OV-3 ovarian
SN12C renal = tested on: SN12C renal
SNB-19 CNS = tested on: SNB-19 CNS
SNB-75 CNS = tested on: SNB-75 CNS
SR leukemia = tested on: SR leukemia
SW-620 colon = tested on: SW-620 colon
T-47D breast = tested on: T-47D breast
TK-10 renal = tested on: TK-10 renal
U251 CNS = tested on: U251 CNS
UACC-257 melanoma = tested on: UACC-257 melanoma
UACC-62 melanoma = tested on: UACC-62 melanoma
UO-31 renal = tested on: UO-31 renal

Work on `Cn1ccnc1C(=O)/C=C/c1ccc(CNC(=O)c2ccc(Cl)cc2)cc1` yielded a GI50 (786-0 renal) of 2.58 µM, a TGI (786-0 renal) of 5.76 µM and a GI50 (A498 renal) of 2.18 µM. For the same molecule, the TGI (A498 renal) was 4.17 µM, the GI50 (A549 NSCLC) was 3.6 µM and the TGI (A549 NSCLC) was > 14.3 µM. It also gave a GI50 (ACHN renal) of 2.98 µM, a TGI (ACHN renal) of 7.42 µM and a GI50 (BT-549 breast) of 2.23 µM. The TGI (BT-549 breast) was 4.65 µM, the GI50 (CAKI-1 renal) was 3.34 µM and the TGI (CAKI-1 renal) was > 14.3 µM. For the same molecule, the GI50 (CCRF-CEM leukemia) was 3.38 µM, the TGI (CCRF-CEM leukemia) was > 14.3 µM and the GI50 (COLO 205 colon) was 2.45 µM. It also gave a TGI (COLO 205 colon) of 6.05 µM, a GI50 (DU-145 prostate) of 2.2 µM and a TGI (DU-145 prostate) of 4.23 µM. The GI50 (EKVX NSCLC) was 3.71 µM, the TGI (EKVX NSCLC) was > 14.3 µM and the GI50 (HCC-2998 colon) was 2.26 µM. The TGI (HCC-2998 colon) was 4.5 µM, the GI50 (HCT-116 colon) was 2.28 µM and the TGI (HCT-116 colon) was 5.05 µM. For the same molecule, the GI50 (HCT-15 colon) was 1.61 µM, the TGI (HCT-15 colon) was 5.39 µM and the GI50 (HL-60(TB) leukemia) was 3.4 µM. It also gave a TGI (HL-60(TB) leukemia) of 11.6 µM, a GI50 (HOP-62 NSCLC) of 2.43 µM and a TGI (HOP-62 NSCLC) of 5.96 µM. It also gave a GI50 (HOP-92 NSCLC) of 3.13 µM, a TGI (HOP-92 NSCLC) of 12.9 µM and a GI50 (HS 578T breast) of 4.3 µM. The TGI (HS 578T breast) was > 14.3 µM, the GI50 (HT29 colon) was 2.39 µM and the TGI (HT29 colon) was 5.13 µM. The GI50 (IGROV1 ovarian) was 2.62 µM, the TGI (IGROV1 ovarian) was 7.73 µM and the GI50 (K-562 leukemia) was 2.2 µM. The TGI (K-562 leukemia) was > 14.3 µM, the GI50 (KM12 colon) was 2.13 µM and the TGI (KM12 colon) was 4.19 µM. It also gave a GI50 (LOX IMVI melanoma) of 0.962 µM, a TGI (LOX IMVI melanoma) of 2.96 µM and a GI50 (M14 melanoma) of 2.78 µM. It also gave a TGI (M14 melanoma) of 7 µM, a GI50 (MALME-3M melanoma) of 2.84 µM and a TGI (MALME-3M melanoma) of 8.12 µM. It also gave a GI50 (MCF7 breast) of 1.75 µM, a TGI (MCF7 breast) of 6.3 µM and a GI50 (MDA-MB-231 breast) of 3.36 µM. For the same molecule, the TGI (MDA-MB-231 breast) was 14.2 µM, the GI50 (MDA-MB-435) was 2.73 µM and the TGI (MDA-MB-435) was 6.37 µM. It also gave a GI50 (MOLT-4 leukemia) of 3.82 µM, a TGI (MOLT-4 leukemia) of 12.4 µM and a GI50 (NCI-H226 lung) of 3.96 µM. The TGI (NCI-H226 lung) was > 14.3 µM, the GI50 (NCI-H23 lung) was 2.68 µM and the TGI (NCI-H23 lung) was 6.47 µM. For the same molecule, the GI50 (NCI-H460 lung) was 2.61 µM, the TGI (NCI-H460 lung) was 6.31 µM and the GI50 (NCI-H522 lung) was 2.47 µM. The TGI (NCI-H522 lung) was 4.83 µM, the GI50 (NCI/ADR-RES ovarian) was 4.03 µM and the TGI (NCI/ADR-RES ovarian) was > 14.3 µM. For the same molecule, the GI50 (OVCAR-4 ovarian) was 3.44 µM, the TGI (OVCAR-4 ovarian) was > 14.3 µM and the GI50 (OVCAR-5 ovarian) was 2.52 µM. For the same molecule, the TGI (OVCAR-5 ovarian) was 5.73 µM, the GI50 (OVCAR-8 ovarian) was 4.15 µM and the TGI (OVCAR-8 ovarian) was > 14.3 µM. It also gave a GI50 (PC-3 prostate) of 2.8 µM, a TGI (PC-3 prostate) of 7.18 µM and a GI50 (RPMI-8226 leukemia) of 1.82 µM. The TGI (RPMI-8226 leukemia) was 6.42 µM, the GI50 (RXF 393 renal) was 2.07 µM and the TGI (RXF 393 renal) was 4.56 µM. For the same molecule, the GI50 (SF-268 CNS) was 2.38 µM, the TGI (SF-268 CNS) was 6.27 µM and the GI50 (SF-295 CNS) was 2.63 µM. It also gave a TGI (SF-295 CNS) of 6.51 µM, a GI50 (SF-539 CNS) of 2.06 µM and a TGI (SF-539 CNS) of 4.12 µM. The GI50 (SK-MEL-2 melanoma) was 3.42 µM, the TGI (SK-MEL-2 melanoma) was 10.8 µM and the GI50 (SK-MEL-28 melanoma) was 2.53 µM. The TGI (SK-MEL-28 melanoma) was 5.31 µM, the GI50 (SK-MEL-5 melanoma) was 4.98 µM and the TGI (SK-MEL-5 melanoma) was > 14.3 µM. For the same molecule, the GI50 (SK-OV-3 ovarian) was 5.05 µM, the TGI (SK-OV-3 ovarian) was > 14.3 µM and the GI50 (SN12C renal) was 3.29 µM. It also gave a TGI (SN12C renal) of 11.4 µM, a GI50 (SNB-19 CNS) of 2.15 µM and a TGI (SNB-19 CNS) of 5.37 µM. For the same molecule, the GI50 (SNB-75 CNS) was 2.41 µM, the TGI (SNB-75 CNS) was 10.3 µM and the GI50 (SR leukemia) was 0.626 µM. For the same molecule, the TGI (SR leukemia) was > 14.3 µM, the GI50 (SW-620 colon) was 2.55 µM and the TGI (SW-620 colon) was 5.88 µM. For the same molecule, the GI50 (T-47D breast) was 3 µM, the TGI (T-47D breast) was > 14.3 µM and the GI50 (TK-10 renal) was 3.92 µM. For the same molecule, the TGI (TK-10 renal) was 13 µM, the GI50 (U251 CNS) was 1.72 µM and the TGI (U251 CNS) was 4.08 µM. The GI50 (UACC-257 melanoma) was 3.12 µM, the TGI (UACC-257 melanoma) was 10.2 µM and the GI50 (UACC-62 melanoma) was 2.41 µM. For the same molecule, the TGI (UACC-62 melanoma) was 5.1 µM, the GI50 (UO-31 renal) was 1.84 µM and the TGI (UO-31 renal) was 3.74 µM.
